{FAM} = 6-carboxyfluorescein (6-FAM) label

In data set [1] the target is T1, central domain of ERCC1 (ERCC196-214) (Homo sapiens, UniProt P07992).
T1 construct: His6 (N); made in house; host or cells: E. coli BL21(DE3)
T1 sequence (P07992 96-214): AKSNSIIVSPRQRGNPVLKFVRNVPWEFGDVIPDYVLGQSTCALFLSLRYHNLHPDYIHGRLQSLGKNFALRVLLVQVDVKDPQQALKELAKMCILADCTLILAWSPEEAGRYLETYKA
To be noted: Tsodikov et al., 2005; direct titration; read-out: equilibrium binding constant for DNA binding to the central domain of ERCC1; cited from earlier work.

Data set [2] deals with NER activity in XP-A (XP2OS) cell extracts. Briefly: In vitro NER assay in XP-A (XP2OS) cell extract supplemented with wild-type or mutant XPA protein. Format: biochemical. To be noted: XPA-deficient cell extract, 200 and 800 nM XPA, cisplatin crosslink plasmid. The source says:
In Vitro NER assay. […] The wild-type, […], […] and […]/[…]

The subject of data set [3] is DNA three-way junction. Briefly: DNA binding assay (band shift) with 5'-labeled DNA three-way junction. Particulars: 1 nM DNA, 4-150 nM XPA. The protocol:
DNA binding assays. The three-way junction DNA substrate described previously (substrate 7 in Table 1 of Hohl et al., 2003, J. Biol. Chem., 278, 19500-19508) was 5′-^32P-end labeled and incubated at 1 nM concentration with various amounts of XPA in EMSA buffer (25 mM Hepes·KOH pH 8.0, 30 mM KCl, 10% glycerol, 1 mM DTT, 1 mM EDTA, 0.1 mg/ml BSA) at a reaction volume of 15 μl. After equilibration at room temperature for 30 min, the samples were loaded on a 5% (37.5:1) native polyacrylamide gel containing 0.5×TBE and electrophoresed at 90 V for 2 hrs. Gels were dried and the radioactive bands visualized by autoradiography.

Data set [4] deals with T2, XPA67-80 peptide (KIIDTGGGFILEEE) (Homo sapiens, UniProt P23025 SEQ:67-80).
T2 chain: KIIDTGGGFILEEE
Briefly: FP; peptide does not detectably bind DNA (data not shown); nonspecific anisotropy increase and quenching above 30 uM. To be noted: protein: synthetic; tags: synthetic peptide, solid phase, HPLC-purified; label: 5' 6-FAM.

The target of data set [5] is T3, ERCC1 central domain (ERCC1 96-214 / 92-214) (Homo sapiens, UniProt P07992 SEQ:96-214).
T3 sequence: T1 sequence (P07992 96-214)
Briefly: FP; 2.33 uM ERCC1, 50 nM DNA; XPA67-80 peptide competes (EC50 micromolar); 20 mM Tris pH 8.0, 20 mM NaCl, 2 mM bME. To be noted: tags: N-terminal His6; label: 5' 6-FAM.

As to “DNA: 5' 6-FAM-labeled single-stranded 40mer DNA, 5'-CCGGTGGCCAGCGCTCGGCG(T)20 (DNA CCGGTGGCCAGCGCTCGGCGTTTTTTTTTTTTTTTTTTTT; DNA, 5' {FAM}, backbone not given here)”, the Kd in data set [1] is 1500 nM.
For the molecule “XPA-WT: purified full length wild-type XPA protein expressed in E. coli”, the “NER activity restored by XPA protein” value in data set [2] is on record as “robust NER activity”. Moreover, in data set [3], the “binding to DNA three-way junction” value is listed as “bound with similar affinity”.
On to CCGGTGGCCAGCGCTCGGCGTTTTTTTTTTTTTTTTTTTT (ssDNA) [6FAM-labeled 40mer ssDNA], for which the binding result in data set [4] is given as “no binding”; in data set [5] it was “binds”.

The values above are taken from patent publication US20100331233A1, “CRYSTAL OF XPA AND ERCC1 COMPLEX AND USES THEREOF” (priority 2007, published 2010).
